For series [1], the system named is Rattus norvegicus. Kind of series: Toxicity in triton WR-1339-induced Rattus norvegicus albino Wistar (rat) hyperlipidemic model assessed as reduction of serum HDL level at 150 mg/kg, po qd after 24 hr. In kind it is organism-based. Also noted: dose 150 mg/kg, route oral. The conditions noted are these: in vivo.
The subject of series [2] is Rattus norvegicus. Kind of series: Toxicity in triton WR-1339-induced Rattus norvegicus albino Wistar (rat) hyperlipidemic model assessed as increase of serum LDL level at 150 mg/kg, po qd after 24 hr. In kind it is organism-based. On the set-up: dose 150 mg/kg, route oral. The note with it: in vivo.
The subject of series [3] is Rattus norvegicus. The series is described as follows: Toxicity in triton WR-1339-induced Rattus norvegicus albino Wistar (rat) hyperlipidemic model assessed as increase of serum total triglyceride level at 150 mg/kg, po qd after 24 hr. On the set-up: dose 150 mg/kg, route oral. In kind it is organism-based. The conditions noted are these: in vivo.
Series [4] has as its system Rattus norvegicus. The series is described as follows: Toxicity in triton WR-1339-induced Rattus norvegicus albino Wistar (rat) hyperlipidemic model assessed as increase of serum total cholesterol level at 150 mg/kg, po qd after 24 hr. On the set-up: dose 150 mg/kg, route oral. The conditions noted are these: in vivo. In kind it is organism-based.
Series [5] has as its system Rattus norvegicus. Kind of series: Hypolipidemic activity in triton WR-1339-induced Rattus norvegicus albino Wistar (rat) hyperlipidemic model assessed as reduction of serum total triglyceride level at 150 mg/kg, po qd after 24 hr. In kind it is functional. Also noted: scale not given: the % may be the effect or the level left.
The subject of series [6] is Rattus norvegicus. The series is described as follows: Hypolipidemic activity in triton WR-1339-induced Rattus norvegicus albino Wistar (rat) hyperlipidemic model assessed as reduction of serum total cholesterol level at 150 mg/kg, po qd after 24 hr. In kind it is functional. Also noted: scale not given: the % may be the effect or the level left.
Series [7] deals with Rattus norvegicus. Kind of series: Hypolipidemic activity in triton WR-1339-induced Rattus norvegicus albino Wistar (rat) hyperlipidemic model assessed as increase of serum HDL level at 150 mg/kg, po qd after 24 hr. In kind it is functional.

Among the data in ChEMBL document CHEMBL3046165, “Synthesis of new cyclic imides derivatives with potential hypolipidemic activity” (Med Chem Res, 2012) are Activity values, retold here.

As for `CC(C(=O)NCc1ccccc1)N1C(=O)c2ccccc2C1=O` (centres undefined), the Activity result in the series with Rattus norvegicus [1] was “Toxic”; in the series with Rattus norvegicus [2], 35.5%; in the series on Rattus norvegicus [3], “Toxic”; with Rattus norvegicus [4], “Toxic”.

As for `CC(C(=O)Nc1ccccc1)N1C(=O)c2ccccc2C1=O` (centres undefined), the Activity in the series with Rattus norvegicus [5] and with Rattus norvegicus [6] was less than 24% throughout.

`CCNC(=O)C(C)N1C(=O)c2ccccc2C1=O` (centres undefined): the Activity entry in the series on Rattus norvegicus [1] is on record as “Toxic”; in the series with Rattus norvegicus [2] it was 35.5%; in the series with Rattus norvegicus [3], “Toxic”; in the series on Rattus norvegicus [4], “Toxic”.

As to `CCCNC(=O)C(C)N1C(=O)c2ccccc2C1=O` (centres undefined), the Activity entry was “Toxic” with Rattus norvegicus [1], 35.5% in the series on Rattus norvegicus [2], “Toxic” in the series with Rattus norvegicus [3] and “Toxic” in the series on Rattus norvegicus [4].

For `CC(C)NC(=O)C(C)N1C(=O)c2ccccc2C1=O` (centres undefined), the Activity result in the series on Rattus norvegicus [1] is on record as “Toxic”; with Rattus norvegicus [2] it was 35.5%; in the series with Rattus norvegicus [3], “Toxic”; in the series on Rattus norvegicus [4], “Toxic”.

For `CC(C(=O)NCCc1ccccc1)N1C(=O)c2ccccc2C1=O` (centres undefined), the Activity entry in the series on Rattus norvegicus [1] is listed as “Toxic”; in the series on Rattus norvegicus [2] it was 35.5%; in the series on Rattus norvegicus [3] it was “Toxic”; in the series with Rattus norvegicus [4] it was “Toxic”.

As for `CC(C(=O)N1CCCC1)N1C(=O)c2ccccc2C1=O` (centres undefined), the Activity entry with Rattus norvegicus [1] was “Toxic”; in the series with Rattus norvegicus [2], 35.5%; with Rattus norvegicus [3] it was “Toxic”; in the series with Rattus norvegicus [4], “Toxic”.

On to `CCNC(=O)C(C)N1C(=O)c2cccc3cccc(c23)C1=O` (centres undefined), for which the Activity is 4.5% in the series with Rattus norvegicus [2] and 29.3% with Rattus norvegicus [7].

As to `CC(C(=O)Nc1ccccc1)N1C(=O)c2cccc3cccc(c23)C1=O` (centres undefined), the Activity in the series on Rattus norvegicus [2] is reported as 4.5%; in the series with Rattus norvegicus [7] it was 29.3%.

With `CC(C(=O)NCc1ccccc1)N1C(=O)c2cccc3cccc(c23)C1=O` (centres undefined), the Activity was 4.5% in the series with Rattus norvegicus [2] and 29.3% in the series on Rattus norvegicus [7].

Consider `CC(C(=O)NCc1ccccc1)n1c(=O)c2ccccc2c2ccccc2c1=O` (centres undefined), for which the Activity in the series with Rattus norvegicus [2] is given as 4.5%; in the series with Rattus norvegicus [7], 29.3%.

Turning to `CCNC(=O)c1ccccc1C(=O)NC(C)C(=O)NCC` (centres undefined), the Activity with Rattus norvegicus [5] is reported as 46.5%; in the series on Rattus norvegicus [6], 48.6%.

In the case of `CC(C)OC(=O)C(C)(C)Oc1ccc(C(=O)c2ccc(Cl)cc2)cc1` [FENOFIBRATE], the Activity was determined as 13% in the series with Rattus norvegicus [2], 20% with Rattus norvegicus [5] and 23% in the series with Rattus norvegicus [6].
